These results are taken from article PMC4335513 (Critical Care, 2015).

Each structure is given as a SMILES string. ≈ marks a conversion by molar mass, not a printed value. Read-outs that look alike come from different tables or passages of the source. *1 amine or outer side, *2 acyl side, *3 side chain or, on linkers, in order; H or OH if unused. Where a SMILES comes first, the peptide text is derived from it. Bridges are numbered along the chain shown (N, C = ends). [ ]: non-standard residue; d: D form. The star is where a group is joined. pTerphenylCO(4''-OnC5H11) = CCCCCOc1ccc(-c2ccc(-c3ccc(C(=O)*)cc3)cc2)cc1; Orn(4R-OH,5R-OH) = O=C([C@H](C[C@@H](O)[C@@H](O)N[*:3])N[*:1])[*:2]; hTyr(3S-OH,4S-OH) = N[C@H](C(=O)O)[C@H](O)[C@@H](O)c1ccc(O)cc1; Pro(3S-OH,4S-Me) = C[C@H]1CN[C@H](C(=O)O)[C@H]1O; Hyp = O=C(O)[C@@H]1C[C@@H](O)CN1

Details of series [1]: AUC 0–24: unit not given beside the values. As to conditions: healthy volunteers; mean (%CV); ref Liu et al. [25]; cited from earlier work. The text has this: Table 2 Comparison of exposures achieved in this study with other studies (mean (%CV)) | column: Anidulafungin / Liu et al. (healthy volunteers)
The nature of series [2]: Plasma pharmacokinetics in critically ill ICU patients (DALI study), noncompartmental analysis. It is filed as in vivo, human. How it is done:
The Defining Antibiotic Levels in Intensive care unit patients (DALI) study was a prospective, multicenter PK point-prevalence study. The protocol has been published in detail previously, and the participating investigators are listed in Additional file 1).
The choice of antifungal agent and dosing was at the discretion of the treating clinician. Each patient had three blood samples taken: blood sample A was a peak concentration taken 30 minutes after completion of intravenous infusion; blood sample B was a mid-dose blood sample taken 50% of the way through a dosing interval; and blood sample C was a pre-dose concentration taken at the end of a dosing interval (within 30 minutes of the next dose).
The stationary phase was a Kinetex C8 (50 × 2.10 mm, 1.7 μm) UHPLC column (Phenomenex, Torrance, CA, USA).
For anidulafungin analysis, the supernatant was washed with dichloromethane to remove lipid-soluble components. […] The methods were validated for linearity, LLOQ, matrix effects, precision and accuracy, and stock stability by using the FDA criteria for bioanalysis.
Clearance (CL) was calculated by using the equation Dose/AUC0-∞.

Series [3] in a line: Clinical outcome of therapy and mortality at 30 days in ICU patients. It is filed as in vivo, human. The conditions noted are these: for patients with positive clinical outcome: completion of treatment course without change or addition of antifungal therapy; for 30-day mortality: died by day 30; for patients with indeterminate clinical outcome: outcome of therapy could not be judged. How it is done:
(§1) Data collection was performed by trained staff at each participating center and entered into a case report form. Various demographic and clinical data were collected, including age, gender, height, weight, admission diagnosis, presence of extracorporeal circuits (for example, renal replacement therapy), clinical outcome of infection, and mortality at 30 days. A positive clinical outcome of therapy was defined as completion of treatment course without change or addition of antifungal therapy and with no additional antifungals commenced within 48 hours of discontinuation of the therapy, and if the outcome of therapy could not be judged for any reason, it was recorded as indeterminate. Also, organ-function data (including renal function: serum creatinine concentration during studied dosing interval; 24-hour measured urinary creatinine clearance (CrCL) (where available), antibiotic dosing (dose and frequency, time of dosing and sampling, day of antibiotic therapy), and infection data (including known or presumed pathogen and pathogen MIC) were collected.

Details of series [4]: AUC 0–24: unit not given beside the values. As to conditions: ICU patients; mean (%CV); ref Liu et al. [25]; cited from earlier work. An excerpt:
Table 2 Comparison of exposures achieved in this study with other studies (mean (%CV)) | column: Anidulafungin / Liu et al. (ICU patients)

Another series deals with C. albicans. Nature of the series: Pathogen MIC reported for patient isolate. It is filed as cell-based. As to conditions: Candida albicans. How it is done:
as §1

For series [5] the following is noted: human, in vivo; cited from earlier work.
For series [6] the following is noted: surgical ICU patients; ref Nguyen et al. [28]; cited from earlier work. An excerpt:
However, variability was higher compared with healthy volunteers (Table 2). This may be attributed to underlying pathophysiological changes that occur in ICU patients. The observed anidulafungin variability in AUC0–24, Cmin, and Cmax was not as high as observed in the study by Liu et al., who recruited a larger cohort of surgical ICU patients but was higher than variability observed in healthy volunteers (Table 2). The PK parameter estimates were ...

Details of series [7]: AUC 0–24: unit not given beside the values. The conditions noted are these: general patients; mean (%CV); ref Wurthwein et al. [26]; cited from earlier work. The text has this:
Table 2 Comparison of exposures achieved in this study with other studies (mean (%CV)) | column: Caspofungin / Wurthwein et al. (general patients)

On the set-up of series [8]: AUC 0–24: unit not given beside the values. As to conditions: healthy volunteers; mean (95% CI); ref Stone et al. [27]; cited from earlier work. An excerpt: Table 2 Comparison of exposures achieved in this study with other studies (mean (%CV)) | column: Caspofungin / Stone et al. [27]^a (healthy volunteers)

As to `CCCCCOc1ccc(-c2ccc(-c3ccc(C(=O)N[C@H]4C[C@@H](O)[C@@H](O)NC(=O)[C@@H]5[C@@H](O)[C@@H](C)CN5C(=O)[C@H]([C@@H](C)O)NC(=O)[C@H]([C@H](O)[C@@H](O)c5ccc(O)cc5)NC(=O)[C@@H]5C[C@@H](O)CN5C(=O)[C@H]([C@@H](C)O)NC4=O)cc3)cc2)cc1` [Anidulafungin, anidulafungin] ({pTerphenylCO(4''-OnC5H11)}-[Orn(4R-OH,5R-OH)]T[Hyp][hTyr(3S-OH,4S-OH)]T[Pro(3S-OH,4S-Me)]; lactam 1-C), the “AUC 0–24” value was 105.0 (22) in series [1]; 55 (28) in [2] (This study, ICU patients, anidulafungin 100 mg, plasma, UHPLC-MS/MS, linear trapezoidal, mean (%CV), n = 9); 93.0 (41) in [4]. In addition, the C max in [1] is on record as 7.0 (22); in series [2] (This study, ICU patients, anidulafungin 100 mg, plasma, observed peak 30 min after end of iv infusion, mean (%CV), n = 9), 3.9 (29); in [4] it was 7.7 (56). Moreover, the C min in series [1] is listed as 3.1 (25); in [2] (This study, ICU patients, anidulafungin 100 mg, plasma, observed pre-dose concentration, mean (%CV), n = 9), 1.8 (30); in [4] it was 3.0 (44). Moreover, the “patients with positive clinical outcome” value in [3] turned out to be 67%. This molecule also registered a 30-day mortality in series [3] of 11%. Further, the “patients with indeterminate clinical outcome” value in series [3] worked out at 33%.

Broadly, the MIC is the lowest concentration found to suppress growth. `OC(Cn1cncn1)(Cn1cncn1)c1ccc(F)cc1F` [Fluconazole, fluconazole] returned a minimal inhibitory concentration (MIC) in the series with C. albicans of 0.75 µg/mL (≈ 2.45 µM). For the same molecule, in series [5], the “AUC 0–24” value was 409 (336–482) and the C max is listed as 25 (22–28). The C max in [2] (human, in vivo) is 20 (14). The “AUC 0–24” value in [2] (human, in vivo, SD) is 359 (259). For the same molecule, in series [3], the “patients with positive clinical outcome” value came out at 27%, the 30-day mortality stood at 47% and the “patients with indeterminate clinical outcome” value is on record as 40%.

For the molecule `CC[C@H](C)C[C@H](C)CCCCCCCCC(=O)N[C@H]1C[C@@H](O)[C@@H](NCCN)NC(=O)[C@@H]2[C@@H](O)CCN2C(=O)[C@H]([C@H](O)CCN)NC(=O)[C@H]([C@H](O)[C@@H](O)c2ccc(O)cc2)NC(=O)[C@@H]2C[C@@H](O)CN2C(=O)[C@H]([C@@H](C)O)NC1=O` [Caspofungin, caspofungin], in series [6], the “Cmin (range observed)” value was 500 to 4100 ng/mL. Besides, the “AUC 0–24” value in series [7] is 170.0 (34); in series [2] (This study, ICU patients, caspofungin 70 mg (loading dose), 70% sampled on day 1, plasma, UHPLC-MS/MS, mean (%CV)) it was 52.0 (53); in series [8], 97.0 (87–109). In addition, the C max in [7] is 13.8 (31); in [2] (This study, ICU patients, caspofungin 70 mg (loading dose), plasma, observed peak, mean (%CV)) it was 3.9 (55); in series [8], 12.1 (11–13). The C min is 1.5 (57) in [2] (This study, ICU patients, caspofungin 70 mg (loading dose), plasma, observed pre-dose, mean (%CV)) and 1.4 (1.1–1.8) in series [8]. The “patients with positive clinical outcome” value in series [3] was determined as 43%. For the same molecule, in series [3], the 30-day mortality is recorded as 29%. The “patients with indeterminate clinical outcome” value in [3] came out at 11%.
